Source: patent publication US11046672B2, “Indolinones compounds and their use in the treatment of fibrotic diseases” (RESPIVERT LIMITED, priority 2015, dated 2021)
Several values for one entry are separate records, joined by “and”; a condition that tells them apart may be missing. Equal values may be shown once. Read-outs that look alike come from different tables or passages of the source.

Key:
PDGFRβ [1] = biological target: T1, PDGFRβ (Homo sapiens (Human), UniProt P09619); assay: PDGF-BB induced phosphorylation of PDGFRβ in fibroblasts (MRC5 cells, HTRF); type: cell-based; settings: MRC5 cells; n = 1 unless otherwise indicated; read-out: PDGFBB-induced PDGFRβ phosphorylation in MRC5 cells (IC50)
PDGFRβ [2] = biological target: T1, PDGFRβ; assay: Duration of action (washout) against PDGF-BB induced phosphorylation of PDGFRβ in human fetal lung fibroblast cells; type: cell-based; settings: MRC-5 cells; for % phos: percentage phosphorylation after wash-out relative to maximal phosphorylation (100%): rhuPDGF-BB, experiments in Groups 1-4
PAMPA permeability assay = type: in vitro ADME; settings: for % Recovery / Papp at 5 h, 10 μM / recovery at 5 hr, 10 μM: PAMPA; for % Recovery / recovery at 5 hr, 10 μM: donor and acceptor compartments; for Papp at 5 h, 10 μM: pH 7, pH 7, 10 μM; for recovery at 5 hr, 10 μM: pH 7, PAMPA
[3] = Pharmacokinetic measurements in rats (intravenous and intra-tracheal dosing); type: in vivo; settings: rat; for concentration at 0.1 h / concentration at 1.5 h / concentration at 24 h / Kp at 0.1 h / Kp at 1.5 h / Kp at 24 h / MRT / clearance / Vd / half-life / concentration at 6 h / Kp at 6 h: male, CD; for concentration at 0.1 h / concentration at 1.5 h / concentration at 24 h / concentration at 6 h: lung, read-out: lung concentration (nM) at time (h); for Kp at 0.1 h / Kp at 1.5 h / Kp at 24 h / Kp at 6 h: lung/plasma; for MRT / clearance / Vd / half-life: plasma; for clearance: i.v. dosing (i.v. dose 0.1-0.5 per compound); for Vd: read-out: Vss; for half-life: read-out: t½ (converted); for i.t. BAV (%): i.t. dosing (i.t. dose 0.1-0.5 per compound)
PDGFRβ [4] = biological target: T1, PDGFRβ; settings: read-out: Ki PDGFRβ; mean, n = 2 unless otherwise indicated
MRC5 cells = assay: Cell viability assay in MRC5 cells (MTT)
[5] = other: intra-tracheal, i.t. dosing, 0.1 h
[6] = other: intra-tracheal, i.t. dosing, 1.5 h
[7] = other: intra-tracheal, i.t. dosing, 24 h
[8] = iv, i.v. dosing, 0.1 h, read-out: lung/plasma ratio at time(h)
[9] = iv, i.v. dosing, 1.5 h, read-out: lung/plasma ratio at time(h)
[10] = other: intra-tracheal, i.t. dosing, 0.1 h, read-out: lung/plasma conc ratio at time(h)
[11] = other: intra-tracheal, i.t. dosing, 1.5 h, read-out: lung/plasma conc ratio at time(h)
[12] = other: intra-tracheal, i.t. dosing, 24 h, read-out: lung/plasma conc ratio at time(h)

T1 sequence (P09619 33-1106): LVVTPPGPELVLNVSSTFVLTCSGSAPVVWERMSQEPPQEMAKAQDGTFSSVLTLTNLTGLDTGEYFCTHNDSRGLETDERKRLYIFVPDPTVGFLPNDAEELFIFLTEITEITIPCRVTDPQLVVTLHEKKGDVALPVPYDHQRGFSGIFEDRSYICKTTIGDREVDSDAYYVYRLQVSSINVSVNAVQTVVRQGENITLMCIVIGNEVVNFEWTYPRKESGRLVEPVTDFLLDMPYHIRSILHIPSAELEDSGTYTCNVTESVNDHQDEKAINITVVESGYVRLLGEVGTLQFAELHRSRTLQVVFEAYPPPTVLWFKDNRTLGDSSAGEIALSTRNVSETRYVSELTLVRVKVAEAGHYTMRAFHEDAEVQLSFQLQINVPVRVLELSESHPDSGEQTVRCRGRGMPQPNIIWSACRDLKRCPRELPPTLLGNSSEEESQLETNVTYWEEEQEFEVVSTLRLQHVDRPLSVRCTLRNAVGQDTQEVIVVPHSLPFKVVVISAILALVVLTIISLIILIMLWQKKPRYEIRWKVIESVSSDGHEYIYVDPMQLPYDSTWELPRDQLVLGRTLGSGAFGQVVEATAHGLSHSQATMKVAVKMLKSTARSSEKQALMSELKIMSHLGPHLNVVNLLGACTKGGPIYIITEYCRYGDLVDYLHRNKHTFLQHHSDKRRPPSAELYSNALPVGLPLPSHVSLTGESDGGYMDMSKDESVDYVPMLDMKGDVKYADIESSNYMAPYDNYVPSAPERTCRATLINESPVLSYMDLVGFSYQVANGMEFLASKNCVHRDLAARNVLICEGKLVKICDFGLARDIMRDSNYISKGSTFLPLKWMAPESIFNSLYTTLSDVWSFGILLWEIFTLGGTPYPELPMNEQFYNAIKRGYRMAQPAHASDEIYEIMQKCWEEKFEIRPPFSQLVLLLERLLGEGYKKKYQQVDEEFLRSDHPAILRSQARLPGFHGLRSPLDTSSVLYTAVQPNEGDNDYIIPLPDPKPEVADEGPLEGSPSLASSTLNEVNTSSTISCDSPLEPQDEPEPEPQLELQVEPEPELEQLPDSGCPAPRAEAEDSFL

| SMILES | IC50 (PDGFRβ [1]) | Papp at 5 h, 10 μM (PAMPA permeability assay; 5 hr) | concentration at 0.1 h ([3]; iv, i.v. dosing, 0.1 h) | concentration at 1.5 h ([3]; iv, i.v. dosing, 1.5 h) | concentration at 24 h ([3]; iv, i.v. dosing, 24 h) | concentration at 0.1 h [3, 5] | concentration at 1.5 h [3, 6] | concentration at 24 h [3, 7] | Kp at 0.1 h [3, 8] | Kp at 1.5 h [3, 9] | Kp at 0.1 h [3, 10] | Kp at 1.5 h [3, 11] | Lung conc i.t./i.v. Ratio at time (h) ([3]; 0.1 h) | Lung conc i.t./i.v. Ratio at time (h) ([3]; 1.5 h) | Lung conc i.t./i.v. Ratio at time (h) ([3]; 24 h) | BAL % administered dose at time (h) ([3]; i.t. dosing, 0.1 h) | Ki (PDGFRβ [4]) | Cell viability at 100 nM (%) (MRC5 cells) | Cell viability at 300 nM (%) (MRC5 cells) | Cell viability at 1000 nM (%) (MRC5 cells) | other results |
| --- | --- | --- | --- | --- | --- | --- | --- | --- | --- | --- | --- | --- | --- | --- | --- | --- | --- | --- | --- | --- | --- |
| COC(=O)c1ccc2c(c1)NC(=O)/C2=C(\Nc1ccc(C(=O)NOCCN(C)C)cc1)c1ccccc1 [Example 3, (Z)-Methyl 3-(((4-((2-(dimethylamino)ethoxy)carbamoyl)phenyl)amino)(phenyl)methylene)-2-oxoindoline-6-carboxylate] | 7.14 nM | 0.0384 ×10⁻⁶ cm/s | 719 nM | 325 nM | 28 nM | 6690 nM | 1680 nM | 247 nM | 126 | 315 | 176 | 1430 | 9.3 | 5.2 | 8.8 | 3% | 11.4 nM | 106% | 85.4% | 67.2% | % phos: percentage phosphorylation after wash-out relative to maximal phosphorylation (100%) (PDGFRβ [2]): 34.6%; % Recovery (PAMPA permeability assay): 76% and 55.3%; Mean Papp (PAMPA permeability assay; pH 7, 10 μM, 5 hr): 0.023 10^−6 cm s^−1; Kp at 24 h [3, 12]: 503; MRT ([3]; iv, i.v. dosing): 3 h; clearance ([3]; iv): 285 mL/min/kg; Vd ([3]; iv, i.v. dosing): 51 L/kg; half-life ([3]; iv, i.v. dosing): 3.1 h; i.t. BAV (%) [3]: 325%; BAL % administered dose at time (h) ([3]; i.t. dosing, 1.5 h): 0.3%; BAL % administered dose at time (h) ([3]; i.t. dosing, 24 h): 0.1%; BAL % administered dose at time (h) ([3]; i.v. dosing, 0.1 h): 0.03%; BAL % administered dose at time (h) ([3]; i.v. dosing, 1.5 h): 0.02%; BAL % administered dose at time (h) ([3]; i.v. dosing, 24 h): BLQ |
| COC(=O)c1ccc2c(c1)NC(=O)/C2=C(\Nc1ccc(C(=O)NOCCN2CCN(C)CC2)cc1)c1ccccc1 [Example 4, (Z)-Methyl 3-(((4-((2-(4-methylpiperazin-1-yl)ethoxy)carbamoyl)phenyl)amino)(phenyl)methylene)-2-oxoindoline-6-carboxylate] | 15.2 nM |  | 419 nM | 266 nM | 12 nM | 5540 nM | 1540 nM | 218 nM | 77 | 285 | 279 | 1320 | 13.2 | 5.8 | 18.2 | 3% | 9.66 nM | 99.2% | 94.8% | 88.8% | Duration of action as inhibitors of PDGFRβ compared with nintedanib (PDGFRβ [2]; wash-out): longer duration of action; % Recovery (PAMPA permeability assay): 44.9% and 75.6%; MRT ([3]; iv, i.v. dosing): 2.4 h; clearance ([3]; iv): 462 mL/min/kg; Vd ([3]; iv, i.v. dosing): 39 L/kg; half-life ([3]; iv, i.v. dosing): 2.2 h; i.t. BAV (%) [3]: 67%; BAL % administered dose at time (h) ([3]; i.t. dosing, 1.5 h): 0.3%; BAL % administered dose at time (h) ([3]; i.t. dosing, 24 h): 0.1%; BAL % administered dose at time (h) ([3]; i.v. dosing, 0.1 h): 0.01%; BAL % administered dose at time (h) ([3]; i.v. dosing, 1.5 h): BLQ; BAL % administered dose at time (h) ([3]; i.v. dosing, 24 h): BLQ; lung/plasma ratio at time(h) ([3]; i.v. dosing, 24 h): BLQ |
| COC(=O)c1cc2c(cc1C)/C(=C(/Nc1ccc(C(=O)NOCCN3CCN(CCO)CC3)cc1)c1ccccc1)C(=O)N2 [Example 7, (Z)-Methyl 3-(((4-((2-(4-(2-hydroxyethyl)piperazin-1-yl)ethoxy)carbamoyl)phenyl)amino)(phenyl)methylene)-5-methyl-2-oxoindoline-6-carboxylate] | 10.4 nM | 0.0245 ×10⁻⁶ cm/s | 329 nM | 172 nM | 30 nM | 2100 nM | 881 nM | 519 nM | 17 | 15 | 233 | 114 | 6 | 5 | 17 | 5.3% | 6.6 nM | 90.7% | 98% | 86.8% | % phos: percentage phosphorylation after wash-out relative to maximal phosphorylation (100%) (PDGFRβ [2]): 84.7%; recovery at 5 hr, 10 μM (PAMPA permeability assay): 58.1%; concentration at 6 h ([3]; iv, 0.1 mg/kg, i.v. dosing, 6 h): 69 nM; concentration at 6 h ([3]; other: intra-tracheal, i.t. dosing, 6 h): 1000 nM; Kp at 6 h ([3]; iv, 0.1 mg/kg, i.v. dosing, 6 h, read-out: lung/plasma ratio at time(h)): 10; Kp at 6 h ([3]; other: intra-tracheal, i.t. dosing, 6 h, read-out: lung/plasma conc ratio at time(h)): 114; Lung conc i.t./i.v. Ratio at time (h) ([3]; 6 h): 15; BAL % administered dose at time (h) ([3]; i.t. dosing, 1.5 h): 0.2%; BAL % administered dose at time (h) ([3]; i.t. dosing, 6 h): 0.3%; BAL % administered dose at time (h) ([3]; i.t. dosing, 24 h): 0.1%; BAL % administered dose at time (h) ([3]; i.v. dosing, 0.1 h): BLQ; BAL % administered dose at time (h) ([3]; i.v. dosing, 1.5 h): BLQ; BAL % administered dose at time (h) ([3]; i.v. dosing, 6 h): BLQ; BAL % administered dose at time (h) ([3]; i.v. dosing, 24 h): BLQ |
| COC(=O)c1ccc2c(c1)NC(=O)/C2=C(\Nc1ccc(S(=O)(=O)NOCCN(C)C)cc1)c1ccccc1 [Example 15] | 19.9 nM | 0.0756 ×10⁻⁶ cm/s | 501 nM | 209 nM | 66 nM | 3430 nM | 1370 nM | 135 nM | 55 | 62 | 177 | 884 | 6.9 | 6.6 | 2.0 | 2.4% | 21.7 nM | 106.9% | 99% | 97.5% | recovery at 5 hr, 10 μM (PAMPA permeability assay): 37.6%; Kp at 24 h ([3]; iv, i.v. dosing, 24 h, read-out: lung/plasma ratio at time(h)): 103; Kp at 24 h [3, 12]: 314; BAL % administered dose at time (h) ([3]; i.t. dosing, 1.5 h): 0.6%; BAL % administered dose at time (h) ([3]; i.t. dosing, 24 h): 0.1%; BAL % administered dose at time (h) ([3]; i.v. dosing, 0.1 h): 0.09%; BAL % administered dose at time (h) ([3]; i.v. dosing, 1.5 h): 0.02%; BAL % administered dose at time (h) ([3]; i.v. dosing, 24 h): 0.01% |
| COC(=O)c1cc2c(cc1C)/C(=C(/Nc1ccc(C(=O)N(C)OCCN3CCNCC3)cc1)c1ccccc1)C(=O)N2 [Example 57] | 5.04 nM | 0.688 ×10⁻⁶ cm/s |  |  |  |  |  |  |  |  |  |  |  |  |  |  | 9.84 nM | 123.5% | 123.2% | 91.2% | % phos: percentage phosphorylation after wash-out relative to maximal phosphorylation (100%) (PDGFRβ [2]): 73.1%; recovery at 5 hr, 10 μM (PAMPA permeability assay): 50.5% |
